Measurements: publication PMC9368227, “Investigation of Radiotracer Metabolic Stability In Vitro with CYP-Overexpressing Hepatoma Cell Lines” (Cells, 2022)
Entries after “also recorded” stand apart in the source; their conditions may differ.

Columns and labels:
[1] = test system: all utilized cell lines; test: Activity distribution between supernatant, wash and cells, summary over all utilized cell lines; assay type: in vitro ADME; conditions: end of incubation period (2 h); range over cell lines
Protocol: (§1) HepG2 cells were cultured in DMEM GlutaMax (Gibco, Paisley, UK) with 10% fetal calf serum (FCS) and with selective antibiotics (penicillin/streptomycin for wildtype, Zeocin (InvivoGen, San Diego, CA, USA) for CYP1A2, and Blasticidin (Gibco, Carlsbad, CA, USA) for CYP2C19 and CYP3A4 cultures). As a negative control, cultures of CHO cultivated in Ham’s F-12 medium (Gibco) with 10% FCS and 2 mM glutamine were added for the radiotracer experiments. Cells were handled under a laminar flow hood (Thermo Scientific^TM Safe 2020, Langenselbold, Germany) and were split once or twice a week by trypsinization. Cell cultures were stored horizontally in a humidified incubator (Heracell240i) at 37 °C and 5% CO2. […] Cell density was determined with a cell counter (CASY® Model TT from Schärfe System, Reutlingen, Germany). […]
Initially, CYP-overexpressing HepG2 and, as controls, HepG2 wildtype, as well as CHO (Chinese hamster ovary) cells, were incubated as an adhered monolayer in a 96-well plate with a relatively high activity concentration of [^18F]1 (25 MBq/mL; workflow according to Figure 1A, upper panel), and the supernatant and cell lysates were investigated by radio-TLC. […] As a result (Table 1), the main fraction of activity was found in the supernatant (64–91%), while only a negligible to low amount of activity was measured in cell lysates (1–16%). […]

[2] = Radiotracer incubation in buffer only (control, without any cell line), radio-TLC; assay type: in vitro ADME
Protocol: HepG2 cells were cultured in DMEM GlutaMax (Gibco, Paisley, UK) with 10% fetal calf serum (FCS) and with selective antibiotics (penicillin/streptomycin for wildtype, Zeocin (InvivoGen, San Diego, CA, USA) for CYP1A2, and Blasticidin (Gibco, Carlsbad, CA, USA) for CYP2C19 and CYP3A4 cultures). As a negative control, cultures of CHO cultivated in Ham’s F-12 medium (Gibco) with 10% FCS and 2 mM glutamine were added for the radiotracer experiments. Cells were handled under a laminar flow hood (Thermo Scientific^TM Safe 2020, Langenselbold, Germany) and were split once or twice a week by trypsinization. Cell cultures were stored horizontally in a humidified incubator (Heracell240i) at 37 °C and 5% CO2. During the time of experimental work, the utilized cell lines were regularly checked for mycoplasma. Cells were seeded in duplicates into a 96-well plate (CellStar®) with a density of 3 × 10^5 cells/well and cultured until the next day at 37 °C and 5% CO2. Cell density was determined with a cell counter (CASY® Model TT from Schärfe System, Reutlingen, Germany). Before the addition of substrates, cells were washed twice with Krebs–Henseleit buffer (KHB). The HEPES-supplemented Krebs–Henseleit buffer (pH 7.4, KHB) was freshly prepared using HEPES (5.95 g/L), D-glucose (2.0 g/L), magnesium sulfate (0.141 g/L), potassium dihydrogenphosphate (0.16 g/L), potassium chloride (0.35 g/L), sodium chloride (6.9 g/L), calcium chloride dihydrate (0.373 g/L), and sodium bicarbonate (2.1 g/L), followed by adjustment to pH 7.4 with NaOH. […]
(§2) Incubations with radiotracer compounds were conducted, on the one hand, with radioactive ^18F-labeled compounds alone (time dependency) and, on the other hand, in the presence of 50 µM nonradioactive reference (carrier addition). For the investigation of a time-dependent metabolite formation, 2 µL aliquots were withdrawn from the supernatant, directly spotted onto the TLC plate, and analyzed as described above. […]

[3] = test system: CHO (Chinese hamster ovary) cells; test: Radiotracer metabolic stability, CHO cells (negative control), radio-TLC; assay type: in vitro ADME; conditions: up to 2 h
Protocol: as §1, with “CO2. During the time of experimental work, the utilized cell lines were regularly checked for mycoplasma.” for “CO2.”
as §2

[4] = test system: HepG2 wildtype; test: Radiotracer metabolic stability, HepG2 wildtype, radio-TLC; assay type: in vitro ADME, human; conditions: up to 2 h
Protocol: (§3) CYP-overexpressing human hepatocellular carcinoma cells (HepG2) were previously generated on the basis of subcloning human CYP1A2 [18], CYP2C19 [20], and CYP3A4 [21] cDNA into a lentiviral expression vector. The cDNA expression in the resulting vector was controlled by the human cytomegalovirus (CMV) promoter. The lentivirus expression vectors were used to produce recombinant lentivirus particles according to standard methods to infect HepG2 cells. Infected cells were selected with 3 µg/mL blasticidin for CYP2C19 and CYP3A4 and 500 µg/mL zeocin for CYP1A2 overexpression 48 h after infection. Within 3–4 weeks, antibiotic-resistant cell colonies were picked to obtain single cell-derived HepG2 clones. For more detailed information on the generation procedure of CYP-overexpressing HepG2 cells, see Steinbrecht et al..
as §1, with “experiments.” for “experiments. Cells were handled under a laminar flow hood (Thermo Scientific^TM Safe 2020, Langenselbold, Germany) and were split once or twice a week by trypsinization. Cell cultures were stored horizontally in a humidified incubator (Heracell240i) at 37 °C and 5% CO2.”

[5] = test system: HepG2 CYP1A2; test: Radiotracer metabolic stability, CYP1A2-overexpressing HepG2 cells; assay type: in vitro ADME, human; conditions: radio-TLC
Protocol: as §3
HepG2 cells were cultured in DMEM GlutaMax (Gibco, Paisley, UK) with 10% fetal calf serum (FCS) and with selective antibiotics (penicillin/streptomycin for wildtype, Zeocin (InvivoGen, San Diego, CA, USA) for CYP1A2, and Blasticidin (Gibco, Carlsbad, CA, USA) for CYP2C19 and CYP3A4 cultures). […] Cell density was determined with a cell counter (CASY® Model TT from Schärfe System, Reutlingen, Germany). […]
as §2
UPLC–MS analyses were performed to verify the degradation behavior of the test compounds and to gain insights into the identity of the formed metabolites. […] Additionally, incubations with the nonradioactive references were carried out with 100 nM or 50 µM (according to the carrier-added samples) and analyzed. UPLC–MS/MS was performed using System 2 (55% isocratic elution for quantification of intact compound, or 25–75% gradient for nonradioactive metabolite analysis). […]

[6] = test system: HepG2 CYP2C19; test: Radiotracer metabolic stability, CYP2C19-overexpressing HepG2 cells; assay type: in vitro ADME, human; conditions: 1 h
Protocol: as §3
HepG2 cells were cultured in DMEM GlutaMax (Gibco, Paisley, UK) with 10% fetal calf serum (FCS) and with selective antibiotics (penicillin/streptomycin for wildtype, Zeocin (InvivoGen, San Diego, CA, USA) for CYP1A2, and Blasticidin (Gibco, Carlsbad, CA, USA) for CYP2C19 and CYP3A4 cultures). As a negative control, cultures of CHO cultivated in Ham’s F-12 medium (Gibco) with 10% FCS and 2 mM glutamine were added for the radiotracer experiments. Cells were handled under a laminar flow hood (Thermo Scientific^TM Safe 2020, Langenselbold, Germany) and were split once or twice a week by trypsinization. Cell cultures were stored horizontally in a humidified incubator (Heracell240i) at 37 °C and 5% CO2. During the time of experimental work, the utilized cell lines were regularly checked for mycoplasma. Cells were seeded in duplicates into a 96-well plate (CellStar®) with a density of 3 × 10^5 cells/well and cultured until the next day at 37 °C and 5% CO2. Cell density was determined with a cell counter (CASY® Model TT from Schärfe System, Reutlingen, Germany). Before the addition of substrates, cells were washed twice with Krebs–Henseleit buffer (KHB). The HEPES-supplemented Krebs–Henseleit buffer (pH 7.4, KHB) was freshly prepared using HEPES (5.95 g/L), D-glucose (2.0 g/L), magnesium sulfate (0.141 g/L), potassium dihydrogenphosphate (0.16 g/L), potassium chloride (0.35 g/L), sodium chloride (6.9 g/L), calcium chloride dihydrate (0.373 g/L), and sodium bicarbonate (2.1 g/L), followed by adjustment to pH 7.4 with NaOH. The utilized substances within this study were neither found (see Supplementary Materials, Figure S14) nor reported to be cytotoxic within the utilized concentration range and incubation duration.
Incubations with radiotracer compounds were conducted, on the one hand, with radioactive ^18F-labeled compounds alone (time dependency) and, on the other hand, in the presence of 50 µM nonradioactive reference (carrier addition). For the investigation of a time-dependent metabolite formation, 2 µL aliquots were withdrawn from the supernatant, directly spotted onto the TLC plate, and analyzed as described above. The same procedure was performed for carrier-added samples.
UPLC–MS analyses were performed to verify the degradation behavior of the test compounds and to gain insights into the identity of the formed metabolites. Using radiotracer incubation samples, 40 µL aliquots of the carrier-added incubations were withdrawn followed by addition of 160 µL of ACN and centrifugation (14,000 rpm (18,800–20,800× g), 4 °C, 5 min). Samples were frozen at −20 °C, and activity was allowed to decay before further mass-spectrometric analyses. Additionally, incubations with the nonradioactive references were carried out with 100 nM or 50 µM (according to the carrier-added samples) and analyzed. UPLC–MS/MS was performed using System 2 (55% isocratic elution for quantification of intact compound, or 25–75% gradient for nonradioactive metabolite analysis). The MRM mode was optimized with a solution of respective reference compounds diluted in eluent. […]

Compound: Cc1ccc(-c2cc(C[18F])nn2-c2ccc(S(C)(=O)=O)cc2)cc1 [[^18F]1, 3-([^18F]fluoromethyl)-1-[4-(methylsulfonyl)phenyl]-5-(p-tolyl)-1H-pyrazole]
- Fraction of activity in cell lysates [1]: 1–16%
- Fraction of activity in supernatant [1]: 64–91%
- Metabolic turnover / stability of radiotracer (in words) ([2]; buffer only, up to 2 h, radio-TLC): no metabolic turnover
- Defluorination without additional enzymes in the incubation buffer (KHB) ([2]; reference incubation without any cell lines): to a minor extent
- Metabolic turnover / stability of radiotracer (in words) [3]: mainly intact radiotracer was found; also recorded: no metabolic turnover
- Metabolic turnover / stability of radiotracer (in words) [4]: mainly intact radiotracer was found
- Intact tracer in supernatant ([5]; 2 h incubation, 2–4 MBq/mL (28–187 nM)): 14.6%
- Metabolic turnover / stability of radiotracer (in words) ([5]; HepG2 CYP1A2, up to 2 h): formation of radiometabolites was observed
- Increase of intact tracer amount with carrier addition ([6]; CA versus without carrier addition): 10 fold
- Amount of intact tracer ([6]; carrier-added (CA), 50 µM 1, radio-TLC): 67.2%
